Source: patent publication US20030154499A1, “Mouse unable to express functional alpha-4 integrin protein, and methods for assaying compounds or agents for alpha-4 integrin protein antagonist activity and a genetic marker for evaluating efficacy of modulators of signaling activity of a VLA-4 receptor” (priority 2001, published 2003)

How the values were obtained:
Assay type in all cases: in vivo
EST AA154371 = assay: Taqman analysis of EST AA154371 in brain and spleen of treated EAE mice
Experimental: (§1) In these experiments, EAE (experimental allergic encephalomyelitis) mice were used. The EAE mouse is an animal model for Central Nervous System (CNS) autoimmune disease. It is widely used as a human Multiple Sclerosis (MS) model.
(§2) EAE mice (see protocol below) vehicle only treated and treated with IVL984 or HMR1031 for 14 days (5 mice per group) were sacrificed by cervical dislocation. The brain was aseptically removed and the RNA was prepared using a standard Trizol (Invitrogen) prep (protocol see below). The prepped RNA was run on an agarose gel to determine the quality of the RNA and quantified by UV spec analysis. Taqman analysis was performed using sequence specific primers and probes (sequence see below).
(§3) PLP139-151 peptide is dissolved in H2O:PBS (1:1) solution to a concentration 5 mg/10 ml (for 50 ug PLP per mouse) or 7.5 mg/10 ml (for 75 ug PLP per […]) and emulsified with an equal volume of CFA supplemented with 40 mg/10 ml heated-killed mycobacterium tuberculosis H37Ra. Mice are injected s.c. with 0.2 ml of peptide emulsion in the abdominal flank (0.1 ml on each side). On the same day and 72 hr later, mice are injected i.v. with 100 μl of 35 ng and 50 ng of Bordetella Pertussis toxin in saline respectively. Treatment IVL984 or HMR1031 or vehicle control only: 0.2% Hydroxypropyl Methylcellulose) started 7 days after immunization, before the first EAE symptoms appeared.
(§4) EAE mice treated with HMR1031A, 50 mg/kg, q.d., s.c. for 14 days from day 7
(§5) EAE mice treated with IVL984 50 mg/kg, q.d., s.c. for 14 days from day 7
(§6) Brain was divided into two halves and each half was placed in a sterile 1.5 ml tube. 0.5 ml TRIzol was added to each tube and the tissue was homogenized using a hand held tissue homogenizer. […]
(§7) The final pellets were briefly air dried and resuspended in nuclease-free, sterile water. […] The concentration was determined by measuring the absorbance at 260 nm.
Taqman primers were ordered for the EST with the accession number AA154371 (EST AA154371 (sequence for the EST: SEQ ID NO 21). Primers for the real time Taqman PCR studies were chosen using Primer Express software (Perkin Elmer) and synthesized by Sigma Genosys. The sequences of the forward and reverse primers were GACAGGGCTGAGGATTCGG (SEQ ID NO: 22) and […] (SEQ ID NO: 23) respectively. PCR product was run on the 4% agarose gel to confirm presence of a single band. PCR reactions were run on ABI Prizm System 7700 sequence detector (Perkin-Elmer) using CybrGreen PCR Core Reagents Kit (Perkin-Elmer) according to the manufacturer's protocol. […] The results were normalized to 18S and expressed as logarithm base 2 of copy number difference with18S RNA levels. […]

[1] = test system: M. musculus mRNA for macrophage mannose receptor; assay: Taqman analysis of macrophage mannose receptor mRNA in brain and spleen of treated EAE mice
Experimental: as §1, §2
as §3, with “respectively.” for “respectively. Treatment IVL984 or HMR1031 or vehicle control only: 0.2% Hydroxypropyl Methylcellulose) started 7 days after immunization, before the first EAE symptoms appeared.”
(§8) Treatment IVL984 or HMR1031 or vehicle control only: 0.2% Hydroxypropyl Methylcellulose) started 7 days after immunization, before the first EAE symptoms appeared.
as §4, §5
Brain was divided into two halves and each half was placed in a steril 1.5 ml tube. 0.5 ml TRIzol was added to each tube and the tissue was homogenized using a hand held tissue homogenizer. After homogenization, another 0.5 ml of TRIzol was added to each tube and the samples were incubated for 5 minutes at room temperature to permit complete dissociation of nucleoprotein complexes.
0.2 ml of Chloroform (Sigma) was added to each tube and vortexed. Samples were incubated for an additional 5 minutes at room temperature and then centrifuged at 12,000×g for 15 minutes at 4° C.
The upper aqueous phase was transferred into a fresh, steril tube and the two sample halves per mouse were combined. 0.5 ml isopropylalcohol was added to each combined sample, vortexed and incubated at room temperature for 10 minutes. The samples were then centrifuged at 12,000×g at 4° C. […]
as §7
Taqman primers were ordered for Mus musculus mRNA for macrophage mannose receptor (Accession number: Z11974). […] The results were normalized to 18S and expressed as logarithm base 2 of copy number difference with 18S RNA levels. […]

JAB or SOCS-1 protein = assay: FACS analysis of SOCS-1 (JAB) protein in spleen cells of treated EAE mice; conditions: 50 mg/kg q.d. s.c. for 14 days from day 7, FACS with C- and N-terminal antibodies, vs vehicle
Excerpt: In these experiments, EAE (experimental allergic encephalomyelitis) mice as well as KO and wt mice of the present invention were used. The EAE mouse is an animal model for Central Nervous System (CNS) autoimmune disease. It is widely used as a human Multiple Sclerosis (MS) model.
EAE mice (see protocol below) vehicle only treated and treated with IVL984 for 14 days (5 mice per group) as well as 5 alpha-4 integrin KO mice of the present invention and 4 wt mice of the same genetic background were sacrificed by cervical dislocation. The spleen was aseptically removed and placed in a 15 ml centrifuge tube containing RPMI 1640 medium with 1% FCS. The spleens were then individually meshed in a 10 cm petri dish through a sterile wire screen using a sterile rubber policeman (0.23 mm pore size screen, Thomas Scientific). The screen was washed and the cell suspension collected and transferred into a 15 ml centrifuge tube. After centrifugation at 1200 rpm for 10 minutes at 4° C., the supernatant was decanted and the red blood cells lysed with 1 ml/spleen ice-cold red blood cell lysis buffer for 1-3 minutes on ice. The supernatant was then carefully transferred into a fresh 15 ml centrifuge tube, leaving the fat pellet behind. […] The number of alive cells was determined using a hemacytometer (Hauser Scientific) and Trypan Blue (Gibco, Life Technologies) as the dye. […]

EST AA571535 = assay: Taqman analysis of EST AA571535 in brain and spleen of treated EAE mice
Experimental: as §1, §2
as §3, with “respectively.” for “respectively. Treatment IVL984 or HMR1031 or vehicle control only: 0.2% Hydroxypropyl Methylcellulose) started 7 days after immunization, before the first EAE symptoms appeared.”
as §8, §4, §5, §6, §7
Taqman primers were ordered for the EST with the accession number AA571535 (EST AA571535 (sequence for the EST: SEQ ID NO 18). Primers for the real time Taqman PCR studies were chosen using Primer Express software (Perkin Elmer) and synthesized by Sigma Genosys. The sequences of the forward and reverse primers were AGCAGCCATGGGAGGCA (SEQ ID NO: 19) and TCCGTTTCCCCACAGCAC (SEQ ID NO: 20) respectively. PCR product was run on the 4% agarose gel to confirm presence of a single band. PCR reactions were run on ABI Prizm System 7700 sequence detector (Perkin-Elmer) using CybrGreen PCR Core Reagents Kit (Perkin-Elmer) according to the manufacturer's protocol. […] The results were normalized to 18S and expressed as logarithm base 2 of copy number difference with18S RNA levels. […]

[2] = EAE mice, 50 mg/kg q.d. s.c. for 14 days from day 7, brain, vs vehicle control
[3] = EAE mice, 50 mg/kg q.d. s.c. for 14 days from day 7, spleen, vs vehicle control
[4] = bodily samples of treated EAE mice, tissue not given

## COc1cc(CC(=O)Nc2ccc([C@@H](CC(=O)O)NC(=O)CCCC(=O)O)cc2)ccc1NC(=O)Nc1ccccc1C [IVL 984]
EST AA154371; [2]
  EST AA 154371, Brain: ✓ (Statistically significant decrease in macrophage mannose receptor mRNA or protein levels with a 5% or lower probability rate in treated mice compared to vehicle control mice.)
EST AA154371; [3]
  EST AA 154371, Spleen: ✓ (Statistically significant decrease in macrophage mannose receptor mRNA or protein levels with a 5% or lower probability rate in treated mice compared to vehicle control mice.)
EST AA154371; EAE mice, brain samples
  EST AA154371 mRNA levels in comparison to vehicle control mice: statistically significant lower
EST AA154371; [4]
  levels of the genetic marker EST AA154371: decreased levels of expression
[1]; [2]
  Macrophage mannose receptor, Brain: Tendency (The decrease in macrophage mannose receptor mRNA levels is a statistically significant, a probability rate of 5-15%.)
[1]; [3]
  Macrophage mannose receptor, Spleen: — (The changes in mRNA levels are statisically significant at a probability rate of higher than 15% (not significant).)
[1]; EAE mice, brain samples
  macrophage mannose receptor mRNA levels in comparison to vehicle control mice: statistically significant lower
[1]; [4]
  levels of the genetic marker macrophage mannose receptor mRNA: decreased levels of expression
JAB or SOCS-1 protein
  levels of JAB or SOCS-1 protein: decreased levels of expression on the protein level
EST AA571535; [2]
  EST AA 571535, Brain: — (The changes in mRNA levels are statistically significant at a probability rate of higher than 15% (not significant).)
EST AA571535; [3]
  EST AA 571535, Spleen: — (The changes in mRNA levels are statistically significant at a probability rate of higher than 15% (not significant).)
EST AA571535; EAE mice, brain samples
  EST AA571535 mRNA levels in comparison to vehicle control mice: statistically significant lower
EST AA571535; [4]
  levels of the genetic marker EST AA571535: decreased levels of expression
